According to patent US10702537B2, “Devices and methods of treating methamphetamine addiction and medical and behavioral consequences of methamphetamine use and of HIV infection” (Board of Supervisors of Louisiana State University and …, priority 2015, dated 2020):
“Also recorded” adds a separate entry of the source. Like-named read-outs stand apart in the source and are kept apart here.

Tests used:
rats [1] = details: cited from earlier work
male rats = assay: methamphetamine self-administration in male rats; type: in vivo, rat; details: for antagonism of oxazepam's effect on methamphetamine self-administration: standard dose methamphetamine; for low dose methamphetamine self-administration: alprazolam 4 mg/kg IP, very low doses of methamphetamine, FIG. 3, 5A
female rats [2] = assay: methamphetamine self-administration in female rats; type: in vivo, rat
Excerpt: Turning to FIGS. 6 and 7, the inventors tested the TSPO compound Ro5-4864 in an animal model of methamphetamine self-administration in male and female rats. […] The inventors compared these effects to the effects of the benzodiazepine alprazolam. […] The inventors also show preliminary data with Ro7-9277 with female rats.

female Wistar rats = assay: methamphetamine drug discrimination; type: in vivo, rat; details: female Wistar rats trained to discriminate 1 mg/kg methamphetamine (IP) from saline; pretreatment; alprazolam 4 mg/kg IP at low doses 0.125 and 0.25 mg/kg methamphetamine; FIG. 2A
Protocol: (§1) Adult female Wistar rats were trained to discriminate 1 mg/kg methamphetamine (IP) from saline using food pellet reinforcement according to previously published procedures (Mantsch and Goeders, 1999, 1998). Pretreatment with alprazolam (4 mg/kg, IP) enhanced the methamphetamine discriminative stimulus at doses of 0.125 and 0.25 mg/kg methamphetamine. […] These observations have been confirmed using a conditioned place preference model as well, evidencing that benzodiazepines differentially modulate the rewarding and reinforcing properties of methamphetamine. […] Thus, this is an extraordinarily consistent pattern across three very different models of drug-related behaviors.

female rats [3] = assay: cocaine drug discrimination; type: in vivo, rat; details: pretreatment, FIG. 2B
rats [4] = assay: methamphetamine drug-induced reinstatement (D-IR) study; type: in vivo, rat; details: FIG. 4
[5] = cocaine-related behaviors; details: in vivo
Protocol: Benzodiazepines affect cocaine and methamphetamine-related behaviors differently—The inventors' laboratory has long been interested in the role for benzodiazepines in drug addiction.
as §1

humans = details: Lile et al., cited from earlier work
[6] = system: drug-dependent individuals; details: cited from earlier work
TSPO [7] = target: TSPO (Rattus norvegicus, UniProt P16257); assay: ex vivo homogenate binding, TSPO; details: structure-activity relationships, confirmed by ex vivo homogenate binding in rat brain tissue
GABAA receptor = assay: ex vivo homogenate binding, GABAA receptor; details: structure-activity relationships, confirmed by ex vivo homogenate binding in rat brain tissue
[8] = humans, cited from earlier work
[9] = rats, intraperitoneal injection; cited from earlier work
TSPO [10] = details: cited from earlier work
TSPO mRNA = details: rats; 1.0 mg/kg IP twice per day for 2 weeks, withdrawn for 7 days; cited from earlier work
[11] = male rats trained at 0.06 mg/kg/infusion, pretreatment

Chain of TSPO (Rattus norvegicus, UniProt P16257) (P16257 whole entry): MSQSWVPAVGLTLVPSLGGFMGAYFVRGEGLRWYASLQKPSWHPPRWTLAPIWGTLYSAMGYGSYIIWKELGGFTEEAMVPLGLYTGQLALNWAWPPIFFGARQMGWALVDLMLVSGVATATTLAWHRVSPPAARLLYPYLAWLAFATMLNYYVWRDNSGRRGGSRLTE

For `CC(=O)[C@H]1CC[C@H]2[C@@H]3CC[C@H]4C[C@H](O)CC[C@]4(C)[C@H]3CC[C@]12C` [Allopregnanolone], the cocaine-related responding (rats [1]; both genders) is listed as “decrease” and the methamphetamine-related responding (rats [1]; female rats) is listed as “decrease”.
In the case of `CCC(C)N(C)C(=O)c1cc2ccccc2c(-c2ccccc2Cl)n1` (stereo not shown) [PK11195], the “antagonism of oxazepam's effect on methamphetamine self-administration” value (“antagonism of oxazepam's effect” for short) (male rats; male rats, FIG. 5B) is reported as “partially blocked” and the “antagonism of oxazepam's effect” value (male rats; male rats, FIG. 5B, listed as PKII195) is reported as “blocked”.
With `CN1C(=O)CN=C(c2ccc(Cl)cc2)c2cc(Cl)ccc21` [Ro5-4864, 4′,7-Dichloro-1,3-dihydro-1-methyl-5-phenyl-2H-1,4-benzodiazepin-2-one] the methamphetamine self-administration (male rats; male rats, FIG. 6) was “dose-related decrease”, the “sensitivity of female rats compared to male rats to the effect on methamphetamine self-administration” value (female rats [2]; FIG. 7 versus FIG. 6) was “significantly more sensitive” and the methamphetamine self-administration (female rats [2]; female rats, FIG. 7) was “dose-related decrease”.
In the case of `Cc1nnc2n1-c1ccc(Cl)cc1C(c1ccccc1)=NC2` [alprazolam, 8-chloro-1-methyl-5-phenyl-4H-(1,2,4)triazolo-1,4-benzodiazepine], the “methamphetamine discriminative stimulus effects” value (female Wistar rats) is reported as “enhanced”, the “cocaine discriminative stimulus effects” value (female rats [3]) is reported as “did not affect; also recorded: no effect” and the “low dose methamphetamine self-administration” value (male rats; [11]) is reported as “enhanced; also recorded: significant increases”. For the same compound, the “low dose methamphetamine-induced reinstatement” value (rats [4]; low-dose priming injection of methamphetamine) was “enhanced; also recorded: potentiated”, the cocaine-related behaviors [5] was “decrease; also recorded: reduce” and the “subjective effects of the methamphetamine high” value (humans; benzodiazepine given acutely at the same time as the stimulant) was “reduced”. The “desirability among benzodiazepines (abuse liability)” value [6] was “one of the most desired”, the “binding to the TSPO” value (TSPO [7]) was “low affinity” and the “binding to the GABAA receptor” value (GABAA receptor) was “binds selectively”.
With `CCOC(=O)c1ncn2c1CN(C)C(=O)c1cc(F)ccc1-2` [flumazenil] the “antagonism of alprazolam's effect on low-dose methamphetamine self-administration” value (male rats; antagonist administered 30 minutes prior to alprazolam, FIG. 5A) was “inhibited; also recorded: blocked” and the “antagonism of oxazepam's effect” value (male rats; male rats, FIG. 5B) was “partially blocked”.
For `CN[C@@H](C)Cc1ccccc1` [methamphetamine], the “Tmax of methamphetamine in blood” value ([8]; intranasal administration) is listed as 2.82 ± 0.13 h, the “Tmax of methamphetamine in blood” value ([8]; intravenously administered) is listed as 0.1 ± 0.183 h and the “Tmax of methamphetamine in blood” value ([8]; oral, range 180-300 min) is listed as 3.6 h. For the same compound, the “Tmax of methamphetamine in blood” value ([8]; smoked) was 2.5 ± 0.5 h, the Tmax of methamphetamine [9] was 7.5 ± 2.8 min and the TSPO binding (TSPO [10]; self-administration of methamphetamine 0.3 mg/kg/inf) was “enhances”. The “TSPO binding in the striatum, cerebellum and hippocampus” value (TSPO [10]; subchronic repeated doses 4×10 mg/kg SC every two hours, within 72 hours) was “increase” and the “TSPO mRNA” value (TSPO mRNA) was “enhances”.
In the case of `O=C1Nc2ccc(Cl)cc2C(c2ccccc2)=NC1O` (stereo not shown) [oxazepam, 7-chloro-1,3-dihydro-3-hydroxy-5-phenyl-2H-1,4-benzodiazepin-2-one], the “methamphetamine discriminative stimulus effects” value (female Wistar rats) is reported as “dose-dependently decreased”, the “cocaine discriminative stimulus effects” value (female rats [3]) is reported as “dose-dependently decreased” and the “low dose methamphetamine self-administration” value (male rats; [11]) is reported as “no effect”. The “methamphetamine self-administration across all doses tested” value (male rats; male rats trained at 0.06 mg/kg/infusion, pretreatment, FIG. 3) was “decreased; also recorded: significant decreases”, the “standard dose methamphetamine self-administration” value (male rats; male rats, FIG. 5B) was “decreased” and the methamphetamine-induced reinstatement (rats [4]; all doses tested) was “decreased”. The cocaine-related behaviors [5] was “decrease; also recorded: reduce”, the “subjective effects of d-amphetamine” value (humans; benzodiazepine given acutely at the same time as amphetamine) was “no significant effect” and the “desirability among benzodiazepines (abuse liability)” value [6] was “one of the least desirable”. The “binding to the TSPO” value (TSPO [7]) was “binds” and the “binding to the GABAA receptor” value (GABAA receptor) was “binds”.
